Measured values: patent US6962930B1, “Compounds, compositions and method suitable for amelioration of withdrawal syndromes and withdrawal-induced brain damage” (Lohocla Research Corporation, priority 1997, dated 2005)

What was measured:
[1] = target: T1, rabbit cardiac L-type VSCC (Oryctolagus cuniculus, UniProt P15381); assay: Currents through VSCCs in oocytes, two electrode voltage clamp; format: cell-based; details: 50 μM, Li+ currents, holding −80 mV, test −20 mV
T1 construct: expressed in transfected cells; host or cells: Xenopus laevis oocytes, cRNA injection
Procedure: In other studies, Stage V and VI oocytes were prepared from Xenopus laevis and maintained using the procedures described in Example 3. Oocytes were injected with cRNA encoding the rabbit cardiac L-type VSCC αic, together with the ancillary subunits α2/β and β2b in a 1:1:1 molar ratio. Macroscopic currents were recorded 4–6 days following injection using the two electrode voltage clamp technique. During recording, oocytes were maintained at room temperature in a perfusion chamber and perfused (1 ml/min) continuously with a buffer containing (in mM) 100 LiCl, 10 HEPES, 10 HEDTA, 14 TEA-Cl, 0.015 CaCl2, (effective free calcium concentration ˜3 nM), pH 7.4 with TEA-OH. The monovalent ion Li^+was used as the charge carrier rather than Ba^2+in these studies because high concentrations of divalent ions promoted precipitation of DCUKA.
DCUKA was made up as a stock solution in DMSO and used in the studies at a concentration of 50 μM, resulting in a final DMSO percentage of 0.25%. This concentration of DMSO enhanced Li^+currents to a small extent, however, this was controlled for by exchanging between solutions that were identical except for presence/absence of the drug itself. […] Li^+currents were recorded using an OC-725B amplifier (Warner Instruments), filtered at 1 kHz (4-pole Bessel filter, Warner Instruments) and sampled at 2 kHz. Voltage pulses of 250 ms duration were given every 15 sec. […]

[2] = target: T2, NR1a/NR2B recombinant receptors (Homo sapiens, UniProt Q05586+Q13224); assay: NMDA-induced currents in oocytes expressing NR1a/NR2B; format: cell-based; details: 100 μM NMDA, 0.3 μM glycine, oocytes; read-out: IC50, inhibition of NMDA-induced currents
T2 construct: expressed in transfected cells; host or cells: Xenopus laevis oocytes, nuclear cDNA injection
Procedure: (§1) Oocytes were obtained from Xenopus laevis frogs (Nasco or Xenopus I) kept in aquarium tanks at 19–21° C., on a 12 hr light/dark cycle. Mature females were anesthetized by immersion for approximately 30 min in a 0.12% 3-aminobenzoic acid ethyl ester solution, a small incision was made in the abdominal wall and a piece of ovary was removed and placed in Modified Barth's solution (MBS; in mM) containing 88 NaCl, 1 KCl, 10 HEPES, 0.82 MgSO4, 2.4 NaHCO3, 0.91 CaCl2, 0.33 Ca(NO3)2 (pH 7.5). To facilitate manual dissection of oocytes, a section of ovary was transferred from MBS to a hypertonic buffer containing 108 mM NaCl, 2 mM KCl, 2 mM EDTA, 10 mM HEPES, pH 7.5 and theca and epithelial layers of mature oocytes (stages V and VI) were removed with surgical forceps. The follicular layer was removed by a 10 min immersion in 0.5 mg/ml of collagenase in buffer containing 83 mM NaCl, 2 mM KCl, 1 mM MgCl2 and 5 mM HEPES.
(§2) Human NR1a, NR2A and NR2B cDNAs in pCDNA-1Amp were transformed and amplified in XL-1 Blue cells and purified with the MaxPrep Qiagen kit. Oocytes were injected with cDNA into the nucleus in the following concentrations: NR1a/2A cDNAs 0.75 ng/30 nl 1:1 ratio, NR1a/2B cDNAs 3.0 ng/30 nl: 1:1 ratio. Injections were made with micropipettes (10 μm tip diameter) connected to a Drummond micropipettor attached to a micromanipulator. After injection, oocytes were individually placed in wells of 96-well microtiter plates containing incubation medium (MBS supplemented with 10 mg/l streptomycin, 10,000 U/l penicillin G, 50 mg/l gentamicin, 2 mM sodium pyruvate, 0.5 mM theophylline) that had been sterilized by passage through a […]. Oocytes were incubated at 19° C. for 2 to 4 days after injection.
(§3) Oocytes were placed in a rectangular chamber (approximately […]) and perfused (2 ml/min) with frog Ringer (in mM) containing 115 NaCl, 2.5 KCl, 1.8 CaCl2, 10 HEPES (pH 7.2). […] Control responses were always measured before and after addition of the DCUKA. […] Data are expressed as the % inhibition of the agonist response obtained in the absence of the drug.

[3] = target: T3, NR1a/NR2B recombinant receptors (Homo sapiens, UniProt Q05586); assay: as above; format: cell-based; details: 100 μM NMDA, 50 μM DCUKA, increasing glycine
T3 construct: expressed in transfected cells; host or cells: Xenopus laevis oocytes, nuclear cDNA injection
Procedure: as §1, §2, §3

[4] = system: audiogenic seizures in DBA/2J mice; assay: Audiogenic seizures; format: in vivo; details: 100 or 500 mg/kg, about 90 minutes before stimulus
Procedure: Male DBA/2J mice (20–22 days old; 8–12 g) were used to evaluate the effects of DCUK-OMe in an animal model of partial seizures. A description of this test for audiogenic seizures can be found in Engstrom, F. L., et al., “SEIZURE SUSCEPTIBILITY IN DBA AND C57 MICE: THE EFFECTS OF VARIOUS CONVULSANTS,” Epilepsia., 29 389–395 (1988), the relevant disclosures of which are incorporated herein by reference. Mice were injected with either vehicle (5% Tween-80, 20% Intralipid) or 100 mg/kg or 500 mg/kg DCUK-OMe suspended in the vehicle about 90 minutes before being placed into a testing chamber having a size of about 6 inches (about 15.2 cm) diameter×about 20 inches (about 50.8 cm) height enclosed in a sound-attenuated box. After a 15–20 second habituation period, a high-intensity auditory stimulus (ringing doorbell, 12–16 kHz, 109 db) was activated for 30 seconds or until tonic hindlimb extension occurred. The seizure response in these mice was characterized by a progression of a wild running behavior, followed by loss of righting and clonus of the forelimbs, followed by tonic hindlimb extension, and finally respiratory arrest. The number of mice showing each response was recorded. […] Data were analyzed by the Fisher Exact Test. In FIG. 8, * denotes P<0.05 compared to vehicle injected mice.

T1 sequence (P15381 whole entry): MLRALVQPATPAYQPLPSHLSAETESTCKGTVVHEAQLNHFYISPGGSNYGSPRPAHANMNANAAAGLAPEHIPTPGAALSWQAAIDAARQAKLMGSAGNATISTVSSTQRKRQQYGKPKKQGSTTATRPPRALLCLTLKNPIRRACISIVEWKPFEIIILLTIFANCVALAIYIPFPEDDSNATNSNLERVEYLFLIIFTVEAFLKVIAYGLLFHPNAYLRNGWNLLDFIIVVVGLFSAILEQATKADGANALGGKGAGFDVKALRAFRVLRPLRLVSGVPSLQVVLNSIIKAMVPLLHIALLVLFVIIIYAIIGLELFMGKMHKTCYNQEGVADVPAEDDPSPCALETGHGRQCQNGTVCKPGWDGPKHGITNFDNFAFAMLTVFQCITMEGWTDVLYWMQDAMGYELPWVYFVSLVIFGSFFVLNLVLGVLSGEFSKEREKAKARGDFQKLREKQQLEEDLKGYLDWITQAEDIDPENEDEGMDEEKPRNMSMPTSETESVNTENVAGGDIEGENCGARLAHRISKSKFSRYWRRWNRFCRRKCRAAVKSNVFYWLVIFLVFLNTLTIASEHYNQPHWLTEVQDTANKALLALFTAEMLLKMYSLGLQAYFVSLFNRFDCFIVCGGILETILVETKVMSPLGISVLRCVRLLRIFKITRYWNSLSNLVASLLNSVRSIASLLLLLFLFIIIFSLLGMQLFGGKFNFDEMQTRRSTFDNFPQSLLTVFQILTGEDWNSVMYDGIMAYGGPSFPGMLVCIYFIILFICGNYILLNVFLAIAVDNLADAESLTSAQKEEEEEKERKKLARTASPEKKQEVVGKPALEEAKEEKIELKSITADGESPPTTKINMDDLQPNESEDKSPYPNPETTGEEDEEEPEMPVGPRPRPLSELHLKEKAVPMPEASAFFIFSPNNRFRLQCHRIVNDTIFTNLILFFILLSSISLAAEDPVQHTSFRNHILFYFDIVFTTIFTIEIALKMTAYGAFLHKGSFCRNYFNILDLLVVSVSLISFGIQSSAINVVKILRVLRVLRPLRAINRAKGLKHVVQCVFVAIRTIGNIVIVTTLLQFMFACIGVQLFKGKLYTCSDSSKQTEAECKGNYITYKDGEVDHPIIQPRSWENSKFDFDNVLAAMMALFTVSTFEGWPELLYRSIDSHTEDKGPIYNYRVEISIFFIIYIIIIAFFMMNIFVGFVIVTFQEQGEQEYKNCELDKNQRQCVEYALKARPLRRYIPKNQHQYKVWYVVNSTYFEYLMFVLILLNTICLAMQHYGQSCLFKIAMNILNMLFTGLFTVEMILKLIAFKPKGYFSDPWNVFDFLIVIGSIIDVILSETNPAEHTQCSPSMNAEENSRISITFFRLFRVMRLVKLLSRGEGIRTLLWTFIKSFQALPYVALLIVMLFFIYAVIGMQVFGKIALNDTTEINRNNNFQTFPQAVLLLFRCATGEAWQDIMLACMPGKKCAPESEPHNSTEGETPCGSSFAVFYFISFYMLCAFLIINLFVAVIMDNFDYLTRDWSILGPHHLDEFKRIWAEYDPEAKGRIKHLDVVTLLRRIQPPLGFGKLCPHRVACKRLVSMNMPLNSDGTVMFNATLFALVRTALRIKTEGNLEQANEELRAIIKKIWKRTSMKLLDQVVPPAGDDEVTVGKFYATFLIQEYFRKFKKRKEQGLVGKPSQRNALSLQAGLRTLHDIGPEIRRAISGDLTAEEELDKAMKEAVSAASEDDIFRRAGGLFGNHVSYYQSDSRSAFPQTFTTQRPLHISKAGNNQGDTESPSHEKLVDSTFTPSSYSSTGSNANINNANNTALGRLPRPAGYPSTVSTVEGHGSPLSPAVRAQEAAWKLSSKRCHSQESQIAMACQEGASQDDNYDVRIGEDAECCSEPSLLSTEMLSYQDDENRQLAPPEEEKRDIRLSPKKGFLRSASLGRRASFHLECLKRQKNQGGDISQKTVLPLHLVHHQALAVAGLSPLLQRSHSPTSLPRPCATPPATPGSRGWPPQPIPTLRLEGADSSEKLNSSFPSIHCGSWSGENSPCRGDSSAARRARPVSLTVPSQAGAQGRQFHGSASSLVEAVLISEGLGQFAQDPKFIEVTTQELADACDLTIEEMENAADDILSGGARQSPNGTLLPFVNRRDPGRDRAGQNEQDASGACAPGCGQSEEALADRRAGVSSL

Compound: O=C(O)c1cc(NC(=O)N(c2ccccc2)c2ccccc2)c2c(Cl)cc(Cl)cc2n1 [DCUKA, (N,N-diphenyl)-4-ureido-5,7-dichloro-2-carboxy-quinoline]
- decrement in the current through VSCCs [1]: less than 20%
- IC50 [2]: 20.7 µM
- reversal by glycine of inhibition of NMDA-induced currents [3]: completely reversed at 10 μM glycine

Compound: COC(=O)c1cc(NC(=O)N(c2ccccc2)c2ccccc2)c2c(Cl)cc(Cl)cc2n1 [DCUK-OMe, (N,N-diphenyl)-4-ureido-5,7-dichloro-2-carboxy-quinoline methyl ester]
- frequency of clonic audiogenic seizures [4]: suppression of audiogenic seizures
